Values after ≈ are worked out from the molar mass of the structure shown. Active and inactive are the calls of the source. The calls are words filed in the database; no cut-off is given here.
How the values were obtained:
Bacillus spizizenii [1] = test: Antibacterial activity against Bacillus subtilis ATCC 6633 in 15th subculture in presence of equimolar concentration of kanamycin A by double microdilution method; type: functional
Escherichia coli [2] = test: Inhibition of protein translation in Escherichia coli S30 cell extract using circular DNA with pBESTluc after 60 mins; type: functional
Escherichia coli [3] = test: Antibacterial activity against kanamycin-resistant Escherichia coli AG100A by double microdilution method; type: functional
Bacillus subtilis = test: Antibacterial activity against aminoglycosides-susceptible Bacillus subtilis by double microdilution method; type: functional
[4] = Inhibition of Escherichia coli DNA gyrase using relaxed pBR322 DNA as substrate by agarose gel electrophorosis method
[5] = tested on: Staphylococcus epidermidis; test: Antibacterial activity against aminoglycosides-susceptible Staphylococcus epidermidis by double microdilution method; type: functional
[6] = Inhibition of Escherichia coli topoisomerase 4 using supercoiled pBR322 DNA as substrate by agarose gel electrophorosis method
Escherichia coli [7] = test: Antibacterial activity against aminoglycosides-resistant Escherichia coli BL21 harboring pET11d encode for APH(3')-2b resistance enzyme by double microdilution method; type: functional
Escherichia coli [8] = test: Ratio of MIC for aminoglycosides-resistant Escherichia coli BL21 harboring pSF815 encode for bifunctional AAC(6')/APH(2\") resistance enzyme to MIC for Escherichia coli BL21; type: functional
Escherichia coli [9] = test: Antibacterial activity against aminoglycosides-susceptible Escherichia coli R477-100 by double microdilution method; type: functional
Escherichia coli [10] = test: Antibacterial activity against aminoglycosides-resistant Escherichia coli BL21 harboring pETSACG1 encode for APH(3')-3a resistance enzyme by double microdilution method; type: functional
Escherichia coli [11] = test: Antibacterial activity against aminoglycosides-resistant Escherichia coli BL21 harboring pSF815 encode for bifunctional AAC(6')/APH(2\") resistance enzyme by double microdilution method; type: functional
Bacillus spizizenii [12] = test: Resistance index, ratio of MIC for Bacillus subtilis ATCC 6633 in 15th subculture to MIC for Bacillus subtilis ATCC 6633 in first subculture; type: functional
Escherichia coli [13] = test: Antibacterial activity against Escherichia coli XL1 blue harboring pET9d encode for APH(3')-1a resistance enzyme by double microdilution method; type: functional
Escherichia coli [14] = test: Antibacterial activity against Escherichia coli ATCC 35218 in 15th subculture in presence of equimolar concentration of ciprofloxacin by double microdilution method; type: functional
Escherichia coli [15] = test: Ratio of MIC for aminoglycosides-resistant Escherichia coli BL21 harboring pET11d encode for APH(3')-2b resistance enzyme to MIC for Escherichia coli BL21; type: functional
Escherichia coli [16] = test: Antibacterial activity against Escherichia coli BL21 by double microdilution method; type: functional
Escherichia coli [17] = test: Antibacterial activity against Escherichia coli XL1 blue by double microdilution method; type: functional
Escherichia coli [18] = test: Antibacterial activity against aminoglycosides-susceptible Escherichia coli 25922 by double microdilution method; type: functional; conditions: ATCC 25922
Escherichia coli [19] = test: Antibacterial activity against kanamycin-resistant Escherichia coli AG100B by double microdilution method; type: functional
[20] = Acute toxicity in iv dosed mouse at pH 6.6 administered for 4 days; type: organism-based; conditions: in vivo
Escherichia coli [21] = test: Resistance index, ratio of MIC for Escherichia coli ATCC 35218 in 15th subculture to MIC for Escherichia coli ATCC 35218 in first subculture; type: functional
Escherichia coli [22] = test: Ratio of MIC for aminoglycosides-resistant Escherichia coli BL21 harboring pETSACG1 encode for APH(3')-3a resistance enzyme to MIC for Escherichia coli BL21; type: functional
Bacillus spizizenii [23] = test: Antibacterial activity against Bacillus subtilis ATCC 6633 in 15th subculture in presence of equimolar concentration of ciprofloxacin by double microdilution method; type: functional
Escherichia coli [24] = test: Ratio of MIC for Escherichia coli XL1 blue harboring pET9d encode for APH(3')-1a resistance enzyme to MIC for Escherichia coli XL1 blue; type: functional

For `O=C(O)c1cn(C2CC2)c2cc(N3CCNCC3)c(F)cc2c1=O` [CIPROFLOXACIN], the Activity (Bacillus spizizenii [1]) was “Active”, the IC50 (Escherichia coli [2]) was “Not Active” and the MIC (Escherichia coli [3]) was under 0.005 µg/mL. It also gave an MIC (Bacillus subtilis) of 0.02 µg/mL (≈ 0.0604 µM), an IC50 ([4]; read-out: IC50) of 1300 nM and an MIC [5] of 0.094 µg/mL (≈ 0.284 µM). It also gave an IC50 ([6]; read-out: IC50) of 8600 nM.
Compound `NC[C@H]1O[C@H](O[C@H]2[C@H](O)[C@@H](O[C@H]3O[C@H](CO)[C@@H](O)[C@H](N)[C@H]3O)[C@H](N)C[C@@H]2N)[C@H](O)[C@@H](O)[C@@H]1O` [KANAMYCIN] has an MIC (Escherichia coli [7]) of over 384 µg/mL, a Ratio (Escherichia coli [8]) of over 32 and an MIC (Escherichia coli [9]) of 12 µg/mL (≈ 24.8 µM). It also gave an MIC (Escherichia coli [10]) of over 384 µg/mL, an MIC (Escherichia coli [11]) of over 384 µg/mL and a Ratio (Bacillus spizizenii [12]) of 15. It also gave an IC50 (Escherichia coli [2]; Escherichia coli, 1 h, read-out: IC50) of 30 nM, an MIC (Escherichia coli [3]) of 96 µg/mL (≈ 198 µM) and an MIC (Escherichia coli [13]) of over 384 µg/mL. The MIC (Bacillus subtilis) was 1.5 µg/mL (≈ 3.1 µM), the Activity (Escherichia coli [14]) was “inactive” and the Ratio (Escherichia coli [15]) was over 32. The MIC (Escherichia coli [16]) was 12 µg/mL (≈ 24.8 µM), the MIC (Escherichia coli [17]) was 3 µg/mL (≈ 6.19 µM) and the MIC (Escherichia coli [18]) was 48 µg/mL (≈ 99.1 µM). The MIC (Escherichia coli [19]) was 384 µg/mL (≈ 793 µM), the LD50 at 96 h [20] was 280 mg/kg and the IC50 [4] was “Not Active”. For the same compound, the Ratio (Escherichia coli [21]) was 15, the Ratio (Escherichia coli [22]) was over 32 and the Activity (Bacillus spizizenii [23]) was “Active”. The MIC [5] was 1.5 µg/mL (≈ 3.1 µM), the IC50 [6] was “Not Active” and the Ratio (Escherichia coli [24]) was over 128.
